melting point	Compound
167 to 170 °C	O=C(O)c1cccc(Cn2cc(C3c4ccccc4C=Cc4ccccc43)c(=S)[nH]c2=S)c1
39 to 40 °C	N#CCNC(=O)C(F)(F)F
100 to 105 °C	COc1ccccc1-c1ccc(Cl)c2c1S(=O)(=O)NC(C1CCCCC1)=N2
176 to 178 °C	CC(=O)OCC1=C(C(=O)OC(c2ccccc2)c2ccccc2)N2C(=O)C(NC(=O)Cc3csc(-c4ncccc4O)n3)C2SC1 (stereo not given)
157 to 159 °C	COc1nc(C)nc(NC(=O)NS(=O)(=O)c2ccccc2OC(F)(F)C(F)(F)F)n1
194 to 197 °C	Nc1ccc(C(=O)Nc2ccc(N)cc2Cl)cc1
88 to 89 °C	COC(=O)Oc1ccc(OC)c(C=O)c1
155 °C	CSC(=CC(=O)c1cnccn1)SC
114 to 115 °C	CCOC(C#N)Cc1ccc(O)c(N)c1 (stereo not given)
156 to 157 °C	CC1=C(C2C=CN(C(=O)OCC(Cl)(Cl)Cl)N=C2)SCC(=O)N1 (stereo not given)
194 to 195 °C	O=CNCC1=CNCN1[C@H]1CCc2c(F)cc(F)cc2C1
90 to 101 °C	CCCCCCCCCCCC(=O)OC[C@H]1OCC(=NO)[C@@H](O)[C@@H]1O
240 °C	O=C(O)Cc1cc(C(=O)Cc2c(F)cccc2Cl)ccc1O
60 to 62 °C	CCCN(CCC)C1COc2cccc(C(=O)c3ccc(F)cc3)c2C1 (stereo not given)
165 to 167 °C	O=C(O)COc1c(-c2cccc(Cl)c2)cc(C(=O)NCCCCCCCCc2ccccc2)cc1-c1cccc(Cl)c1
82 to 85 °C	CCOC(=O)NS(=O)(=O)c1c(C(=O)OCC)c(Cl)nn1C
59.5 to 60.5 °C	COc1cc(CCC=CC(C)=O)ccc1OCc1ccccc1
94 to 97 °C	CC(O)(C=Cc1ccc(S(=O)(=O)c2ccccc2)cc1)C(F)(F)F (stereo not given)
133 to 134 °C	COc1cc(C=CC(=O)Nc2c(CCO)nc3c(C)cc(C)cc3c2-c2ccccc2Cl)ccc1O
344 to 349 °C	COC(=O)c1ccc2c(c1)NC(=O)c1cccnc1N2
145 to 146 °C	O=C(COc1ccc(CCC(=O)C(F)(F)F)cc1)NC(c1ccc(Cl)cc1)c1ccc(Cl)cc1
238 to 240 °C	CC(=O)Oc1nn(-c2ccc(C)cc2)c(=O)c2c1Nc1cc(Cl)ccc1C2
101 to 103 °C	O=C(c1ccc(Cl)cc1)c1nccs1

melting point	Compound
146 to 148 °C	C[C@@H](N1CCN(c2ccc(-n3cnn(Cc4ccc(C(F)(F)F)cc4C(F)(F)F)c3=O)cc2)CC1)[C@](O)(Cn1cncn1)c1ccc(F)cc1F
118 to 120 °C	CN1C(=O)c2cc(Cl)ccc2N(C(=O)CCN2CCCC2)c2ccccc21
149 to 150 °C	CCOC(=O)C1=C(C)NC(C)=C(C(=O)OCC)C1c1cccc(F)c1
165 °C	CC1(C)Oc2ccc(C#N)cc2[C@@H](NC(=O)c2ccccn2)[C@@H]1O (relative stereo)
152 to 154 °C	COC(=O)c1ccc(N2CCOCC2)c(NC(=N)N)c1
158 to 160 °C	N[C@@H](Cc1ccccc1)C(=O)NC(=O)OCc1ccccc1
96 °C	Cn1c(C(F)(F)F)nnc1S(C)(=O)=O
146 to 149 °C	Nc1sc2c(c1C(=O)c1ccc3c(c1)Cc1ccccc1-3)CCCC2
> 300 °C	O=c1[nH]c2ccc3c(c2[nH]c1=O)NCCC3
92 to 93 °C	Nc1ccc2c(c1)C(=O)C2
198 °C	O=C(O)CCCCCCCn1c(-c2ccccc2)nc(-c2ccccc2Cl)c1-c1ccccc1Cl
77 to 78 °C	N[C@@H](Cc1cccc(OCC(F)(F)C(F)F)c1)[C@H](O)c1ccc(F)cc1 (racemic)
113 to 114 °C	CC(=O)OC1CC(C)(C)C(OC(=O)c2ccccc2)C(O)C=C1C (stereo not given)
73 to 74 °C	OCc1cnn(-c2ccc(OC(F)(F)F)cc2)c1
173 to 176 °C	COc1ccc(C(F)(F)F)cc1N1CCN(CCCNC(=O)c2cccc3c(=O)c(C)c(-c4ccccc4)oc23)CC1
170 to 172 °C	CC(=O)N1c2ccccc2-c2c(N)cnn2C1C (stereo not given)
143 to 145 °C	CNC(=O)c1ccc(F)c(F)c1
178 to 179 °C	O=C(O)COc1ccc(SCc2ccc(-c3ccc(C(F)(F)F)cn3)cc2)c2c1CCCO2
292 to 293 °C	CS(=O)(=O)c1ccc(-c2cc(C(N)=O)nn2-c2ccc(C(=O)O)cc2)cc1
194 to 196 °C	NS(=O)(=O)c1c(Cl)nc2ccc(C3CC3)nn12
91 to 97 °C	N#CC(c1cccnc1)C1CCN(C(=O)CC(NC(=O)c2cccc(OCc3ccc4ccccc4n3)c2)c2ccccc2)CC1 (stereo not given)
135 to 137 °C	O=C(O)Cc1cccc(Cn2cc(C3c4ccccc4C=Cc4ccccc43)c(=S)[nH]c2=O)c1

Continued, compound first:

Compound	melting point
CC(CSC(=O)c1ccco1)C(=O)N1CCCC1C(=O)O (mixture of isomers)	132 to 140 °C
CSc1ccc(Cl)c(C(=O)Nc2ccc(-n3nc(C(F)(F)F)cc3C3CC3)cc2)c1	172 to 177 °C
CC1CCC(Oc2cc(F)cc(C(=O)Nc3ccc(OCCN4CCOCC4)c4ccccc34)c2)CC1 (stereo not given)	98 to 100 °C
Clc1ccc(Nc2nnc(-c3ccc(-c4ccccc4)cc3)s2)cc1Cl	306 °C
COC1CCN2C(=O)c3cccc([N+](=O)[O-])c3C2C1 (stereo not given)	132 to 134 °C
CC(C)c1nc(CO)n(Cc2ccccc2)c1Sc1cc(Cl)cc(Cl)c1	121 to 124 °C
Cc1ccccc1-c1nc(-c2ccccc2Cl)n[nH]1	109 to 111 °C
CC(C)CCNS(=O)(=O)c1cc(C(=O)NC2CCc3ccccc32)ccc1Oc1ccccc1 (stereo not given)	73 °C
CC(C)CN1CCn2c1nc1[nH]cnc1c2=O	233 to 237 °C
COc1ccnc(CCc2nc3cc(-c4ccc(S(=O)(=O)N(C)C)c(F)c4)cnc3[nH]2)c1	211 to 212 °C
O=C(Nc1nc(-c2ccccc2)cs1)C(=O)OC1CCCCC1	160 to 161 °C
CCNC(=O)Nc1nc2cc(-c3ccc(OC)nc3)ccn2n1	230 to 233 °C
O=c1[nH]c2cc3cc(N4CCCC4)ccc3nc2[nH]1	> 300 °C
CCNc1ccc(NCCO)cc1[N+](=O)[O-]	106 °C
CC(NC(=O)Oc1cccc2c1C1(C)CCN(C)C1N2C)c1ccccc1 (stereo not given)	151 to 155 °C
CCC(COC)n1cc(Cl)nc(N2CCc3cc(OC)c(F)c(Cl)c32)c1=O (stereo not given)	140 to 142 °C
O=C1C(=CO)COc2ccc(OCc3ccccc3)cc21	82 to 85 °C
CC(C)c1noc(-c2ncn3c2[C@@H]2CCCN2C(=O)c2c(Cl)cccc2-3)n1	187 to 188 °C
CCOC(=O)Cc1ccc(NC(=O)C(COc2cccnc2)NS(=O)(=O)c2ccc(Br)cc2)cc1 (racemic)	168 to 171 °C
CCCCNc1cc(C(=O)O)cc(S(N)(=O)=O)c1Nc1ccc(N)cc1	210 °C
Nc1ncc2cc(-c3ccncc3)c(N)nc2n1	> 340 °C
COc1ccc(C(O)C(F)(F)C(=O)SC(C)(C)C)cc1 (stereo not given)	73 to 75 °C
O=C(CCCCCl)c1c[nH]c2ccccc12	165 to 167 °C
CN(C(=O)COc1cc(-c2ccccc2)nc2ccccc12)c1ccccc1	150 °C
COC(=O)c1ccc(I)nc1	134 to 135 °C
O=c1[nH]c2ccc(C3=NOC(CN4CCC(c5ccc(F)cc5)CC4)C3)cc2o1 (stereo not given)	214 to 217 °C
O=[N+]([O-])c1cccnc1Nc1ccc(F)cc1F	110 °C
COc1ccc(-c2coc(C(=O)O)cc2=O)cc1	232 to 234 °C

Compound	melting point
Cc1cn(C2CC(O)C(CNC(=O)c3ccc(Br)cc3)O2)c(=O)[nH]c1=O (stereo not given)	250 to 252 °C
CCCC(C)n1c(=O)nc(-n2cccn2)[nH]c1=O (stereo not given)	99 to 100 °C
CCOC(=O)C(CO)c1ccc(OCC)cc1 (stereo not given)	35 to 36 °C
NC(=O)OCC1COC(C(F)(F)F)(C(F)(F)F)O1 (stereo not given)	52 to 54 °C
CCC(CC)OC(=O)c1ccc(C(=O)NS(=O)(=O)c2cccc(C(=O)NCCc3ccccc3)c2)cn1	189 to 191 °C
CC1(C)Cc2c(c(N3CCCC3)nc3sc4c(NCCCN5CCCC5=O)ncnc4c23)CO1	217 °C
O=C1CCCN(C(=O)c2ccc([N+](=O)[O-])cc2Cl)c2ccccc21	140 to 143 °C
COc1cc[nH]c1C=C1C(=O)Nc2cccc(C#CC(O)c3sccc3OC)c21 (racemic)	213 to 216 °C
CCCCCCCCCCCCCCCCOc1ccc(OCC(=O)NCc2ccccn2)cc1	68 to 69 °C
CC(=O)NCC=C1CCc2c(Cl)cc3nn(C)cc3c21	177 to 178 °C
COC(=O)c1ccc(C(=O)NS(=O)(=O)c2ccc(C(=O)NCCc3ccccc3OC)cc2)cn1	220 to 222 °C
O=c1ccc2c(-c3ccco3)nccc2[nH]1	> 300 °C
CCCCn1c(=O)[nH]c2cc(Cl)cc(Cl)c2c1=O	198 to 201 °C
CC(=C(C#N)N=CN(C)C)N1CCCC1	49 to 53 °C
CCCCCCCCc1ccc(OCC(=O)Cn2c(C(=O)O)cc3ccccc32)cc1	173 °C
CCCCc1nc(Cl)c(CC(=O)O)c(Cc2ccc(-c3ccccc3C(=O)O)cc2)n1	100 to 110 °C
CCCC=Nc1cc(CO)cc(Nc2c3ccccc3nc3ccccc23)c1	228 to 230 °C
CN1CCN(C2CC3C4CCC5CC6OC6CC5(C)C4CCC3(C)C2=O)CC1 (stereo not given)	132 to 134 °C
Cc1c(C)c2c(c([N+](=O)[O-])c1C)OC(C)(C)C2	100 to 101 °C
O=C(O)CNc1ccccc1F	126 to 127 °C
COCCNC(=O)c1cccc(-c2ccc(F)c3cc(Cc4cccc(S(C)(=O)=O)c4)sc23)c1	158 to 159 °C
CCC(=O)c1ccn(S(=O)(=O)c2ccccc2)c1C	105 to 110 °C
CCCCCCCCCCSC(=S)N1Cc2[nH]c3ccccc3c2CC1CO (stereo not given)	115 to 118 °C
Nc1ccc(N2CCN(c3ccccn3)CC2)cc1	119 to 120 °C
CCOC(=O)c1nc(-c2cccc3ccccc23)[nH]c1-c1ccc(C)cc1	190 to 192 °C
Cc1nc(N2CCN(Cc3ncoc3-c3ccccc3)C2=O)sc1C(=O)NCc1cccnc1	78 to 81 °C
CC(C)c1ccc(N(Cc2ccc(N(C)C)cc2)C(=O)C2CCCc3cc(O)ccc32)cc1 (stereo not given)	169 to 171 °C

Reference: a melting point compilation (Tetko et al.; mined from patent text by program, amines drawn as free bases though some values may be those of a salt)
